Assay results as given in patent US20240182481A1 (Tango Therapeutics, Inc., priority 2021, published 2024).
Where two headings read alike, the source gives them in different places.

How the values were obtained:
[1] = tested on: HCC1954 (BRCA1 WT) cell line; assay: Viability assay in BRCA1 WT cell line HCC1954; format: cell-based; details: Homo sapiens, read-out: HCC 1954 IC50 rel IC50
Excerpt: (§1) Table 1 also indicates IC50 values in a viability assay for a non-isogenic pair of BRCA1 mutant (column 5—MDA-MB-436) and BRCA1 WT (column 6—HCC1954) cell lines. These values indicate the effect of treatment with compound on cell survival.

USP1-UAF1 = USP1-UAF1 (Homo sapiens, UniProt O94782); assay: Ubiquitin Rhodamine assay for USP1-UAF1 activity; format: biochemical
USP1-UAF1, sequence (O94782 whole entry): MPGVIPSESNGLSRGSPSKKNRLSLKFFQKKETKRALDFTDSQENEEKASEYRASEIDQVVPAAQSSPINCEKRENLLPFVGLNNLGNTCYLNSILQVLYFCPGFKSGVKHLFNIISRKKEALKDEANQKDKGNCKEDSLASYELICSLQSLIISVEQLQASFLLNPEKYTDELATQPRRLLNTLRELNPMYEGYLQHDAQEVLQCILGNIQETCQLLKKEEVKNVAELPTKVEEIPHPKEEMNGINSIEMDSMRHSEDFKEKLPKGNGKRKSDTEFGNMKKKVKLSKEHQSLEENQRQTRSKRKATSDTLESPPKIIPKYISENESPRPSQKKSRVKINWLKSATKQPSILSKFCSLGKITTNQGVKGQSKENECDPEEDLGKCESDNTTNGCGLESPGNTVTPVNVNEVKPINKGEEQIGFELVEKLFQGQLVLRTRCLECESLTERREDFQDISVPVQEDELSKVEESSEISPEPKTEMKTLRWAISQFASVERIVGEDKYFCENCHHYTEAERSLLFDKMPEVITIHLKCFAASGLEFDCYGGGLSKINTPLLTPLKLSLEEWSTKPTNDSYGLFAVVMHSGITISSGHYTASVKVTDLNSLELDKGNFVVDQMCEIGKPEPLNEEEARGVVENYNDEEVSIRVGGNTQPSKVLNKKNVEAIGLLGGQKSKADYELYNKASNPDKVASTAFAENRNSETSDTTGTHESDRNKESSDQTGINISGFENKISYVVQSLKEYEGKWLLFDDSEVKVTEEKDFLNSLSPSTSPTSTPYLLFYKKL
USP1-UAF1, sequence (Q8TAF3 whole entry partner): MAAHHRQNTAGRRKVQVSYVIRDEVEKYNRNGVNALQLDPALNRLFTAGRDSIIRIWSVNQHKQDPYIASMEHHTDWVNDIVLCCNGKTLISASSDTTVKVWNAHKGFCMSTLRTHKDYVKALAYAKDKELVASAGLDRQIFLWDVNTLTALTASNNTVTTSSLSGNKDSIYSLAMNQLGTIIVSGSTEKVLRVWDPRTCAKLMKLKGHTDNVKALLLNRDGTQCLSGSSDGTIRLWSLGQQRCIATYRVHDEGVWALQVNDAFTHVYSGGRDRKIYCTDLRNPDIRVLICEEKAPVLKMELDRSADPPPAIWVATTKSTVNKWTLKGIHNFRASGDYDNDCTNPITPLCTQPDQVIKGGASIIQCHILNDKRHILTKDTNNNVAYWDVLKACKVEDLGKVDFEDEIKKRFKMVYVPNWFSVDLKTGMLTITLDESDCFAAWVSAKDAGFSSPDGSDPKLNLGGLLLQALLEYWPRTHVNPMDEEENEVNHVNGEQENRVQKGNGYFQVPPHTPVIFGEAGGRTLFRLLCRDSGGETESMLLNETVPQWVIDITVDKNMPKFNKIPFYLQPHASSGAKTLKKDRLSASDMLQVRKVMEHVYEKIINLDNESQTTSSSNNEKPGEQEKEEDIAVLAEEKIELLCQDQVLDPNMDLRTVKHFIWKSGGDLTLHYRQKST
Description: Certain compounds of the disclosure were assessed for USP1-UAF1 activity in a Ubiquitin Rhodamine assay as described in Example 135.

monoubiquitinated PCNA = assay: AlphaLISA assay measuring monoubiquitinated PCNA in MDA-MB-436; format: cell-based; details: Homo sapiens, read-out: Alpha LISA IC50
Excerpt: Table 1 also indicates IC50 values for exemplary compounds in an AlphaLISA assay measuring monoubiquitinated PCNA in a BRCA1 mutant cell line (MDA-MB-436; column 7).

[2] = tested on: MDA-MB-436 (BRCA1 mutant) cell line; assay: Viability assay in BRCA1 mutant cell line MDA-MB-436; format: cell-based; details: Homo sapiens, BRCA1 mutant MDA-MB-436, read-out: MDA-MB-436 rel IC50
Excerpt: as §1

| IC50 [1] | IC50 (USP1-UAF1) | IC50 (monoubiquitinated PCNA) | IC50 ([2]; MDA-MB-436, viability) | SMILES | IC50 ([2]; viability) |
| --- | --- | --- | --- | --- | --- |
| ≥ 10000 nM | < 30 nM | < 100 nM | < 100 nM | COc1ncnc(C2CC2)c1-c1nc(C)c2[nH]cc(Cc3ccc(-c4nc(C(F)(F)F)cn4C)cc3)c2n1 [Compound 148, 2-(4-cyclopropyl-6-methoxy-pyrimidin-5-yl)-4-methyl-7-[[4-[1-methyl-4-(trifluoromethyl)imidazol-2-yl]phenyl]methyl]-5H-pyrrolo[3,2-d]pyrimidine] |  |
| ≥ 10000 nM | 30 to 100 nM | 100 to 250 nM | < 100 nM | COc1ncnc(C(C)(C)C)c1-c1ncc2[nH]cc(Cc3ccc(-c4nc(C(F)(F)F)cn4C)cc3)c2n1 [Compound 124, 2-(4-tert-butyl-6-methoxy-pyrimidin-5-yl)-7-[[4-[1-methyl-4-(trifluoromethyl)imidazol-2-yl]phenyl]methyl]-5H-pyrrolo[3,2-d]pyrimidine] |  |
| 250 to 10000 nM | 30 to 100 nM | < 100 nM | 100 to 250 nM | COc1ncnc(C2CC2)c1-c1ncc2[nH]cc([C@@H](c3ccc(-c4nc(C(F)(F)F)cn4C)cc3)C(C)C)c2n1 (single isomer, unassigned) [Compound 151] |  |
| ≥ 10000 nM | < 30 nM | < 100 nM | < 100 nM | [2H]C([2H])([2H])n1cc(C(F)(F)F)nc1-c1ccc(Cc2c[nH]c3cnc(-c4c(OC)ncnc4C4CC4)nc23)cc1 [Compound 135, 2-(4-cyclopropyl-6-methoxy-pyrimidin-5-yl)-7-[[4-[1-(trideuteriomethyl)-4-(trifluoromethyl)imidazol-2-yl]phenyl]methyl]-5H-pyrrolo[3,2-d]pyrimidine] |  |
| ≥ 10000 nM | 30 to 100 nM | < 100 nM | 100 to 250 nM | Cn1cc(C(F)(F)F)nc1-c1ccc(Cc2c[nH]c3cnc(-c4cccnc4OC4CC4)nc23)cc1 [Compound 41, 2-cyclopropoxy-3-[7-([4-[1-methyl-4-(trifluoromethyl)imidazol-2-yl]phenyl]methyl)-5H-pyrrolo[3,2-d]pyrimidin-2-yl]pyridine] |  |
| ≥ 10000 nM | 30 to 100 nM | < 100 nM | 100 to 250 nM | COc1ncnc(OC)c1-c1ncc2[nH]cc(Cc3ccc(-c4nc(C(F)(F)F)cn4C)cc3)c2n1 [Compound 100] |  |
| ≥ 10000 nM | < 30 nM | < 100 nM | < 100 nM | CC(C)n1cc(C(F)(F)F)nc1-c1ccc(Cc2c[nH]c3cnc(-c4c(OC(F)F)ncnc4C4CC4)nc23)cc1 [Compound 132] |  |
| ≥ 10000 nM | < 30 nM | < 100 nM | < 100 nM | COc1ncnc(C2CC2)c1-c1ncc2[nH]cc(Cc3ccc(-c4nc(C(F)(F)F)cn4C)c(F)c3)c2n1 [Compound 153, 2-(4-cyclopropyl-6-methoxy-pyrimidin-5-yl)-7-[[3-fluoro-4-[1-methyl-4-(trifluoromethyl)imidazol-2-yl]phenyl]methyl]-5H-pyrrolo[3,2-d]pyrimidine] |  |
| ≥ 10000 nM | < 30 nM | < 100 nM | < 100 nM | COc1nccc(C2CC2)c1-c1ncc2[nH]cc(Cc3ccc(-c4nc(C(F)(F)F)cn4C)cc3)c2n1 [Compound 152, 2-(4-cyclopropyl-2-methoxy-3-pyridyl)-7-[[4-[1-methyl-4-(trifluoromethyl)imidazol-2-yl]phenyl]methyl]-5H-pyrrolo[3,2-d]pyrimidine] |  |
| ≥ 10000 nM | < 30 nM | < 100 nM | < 100 nM | COc1ncnc(C2CC2)c1-c1ncc2[nH]c(F)c(Cc3ccc(-c4nc(C(F)(F)F)cn4C)cc3)c2n1 [Compound 181, 2-(4-cyclopropyl-6-methoxy-pyrimidin-5-yl)-6-fluoro-7-[[4-[1-methyl-4-(trifluoromethyl)imidazol-2-yl]phenyl]methyl]-5H-pyrrolo[3,2-d]pyrimidine] |  |
| 250 to 10000 nM | < 30 nM | < 100 nM | < 100 nM | Cn1cc(C(F)(F)F)nc1-c1ccc(Cc2c[nH]c3cnc(-c4cccnc4OCC(F)(F)F)nc23)cc1 [Compound 78] |  |

Second part, the compound before the results:

| SMILES | IC50 [1] | IC50 (USP1-UAF1) | IC50 (monoubiquitinated PCNA) | IC50 ([2]; MDA-MB-436, viability) | IC50 ([2]; viability) |
| --- | --- | --- | --- | --- | --- |
| [2H]C([2H])([2H])Oc1ncnc(C2CC2)c1-c1ncc2[nH]nc(Cc3ccc(-c4nc(C(F)(F)F)cn4C)cc3)c2n1 [Compound 163, 5-[4-cyclopropyl-6-(trideuteriomethoxy)pyrimidin-5-yl]-3-[[4-[1-methyl-4-(trifluoromethyl)imidazol-2-yl]phenyl]methyl]-1H-pyrazolo[4,3-d]pyrimidine] | ≥ 10000 nM | < 30 nM | < 100 nM | < 100 nM |  |
| COc1ncnc(C2CC2)c1-c1ncc2c(n1)c(Sc1ccc(-c3nc(C(F)(F)F)cn3C)cc1)cn2C [Compound 166] | ≥ 10000 nM | 100 to 10000 nM | 250 to 10000 nM | 100 to 250 nM |  |
| CC(C)c1ccccc1-c1ncc2c(n1)c(Cc1ccc(-c3nc(C(F)(F)F)cn3C)cc1)cn2CCO [Compound 57, 2-[2-(2-isopropylphenyl)-7-[[4-[1-methyl-4-(trifluoromethyl)imidazol-2-yl]phenyl]methyl]pyrrolo[3,2-d]pyrimidin-5-yl]ethanol] | ≥ 10000 nM | < 30 nM | 100 to 250 nM | 250 to 10000 nM |  |
| COc1ncnc(C2CC2)c1-c1ncc2c(n1)c(Cc1ccc(-c3nc(C(F)(F)F)cn3C)cc1)cn2C(C)=O [Compound 93, 1-[2-(4-cyclopropyl-6-methoxy-pyrimidin-5-yl)-7-[[4-[1-methyl-4-(trifluoromethyl)imidazol-2-yl]phenyl]methyl]pyrrolo[3,2-d]pyrimidin-5-yl]ethanone] | ≥ 10000 nM | 30 to 100 nM | < 100 nM |  | < 100 nM |
| COc1ncnc(C2CC2)c1-c1ncc2[nH]c(C)c(C(O)c3ccc(-c4nc(C(F)(F)F)cn4C)cc3)c2n1 (centres unmarked) [Compound 207, [2-(4-cyclopropyl-6-methoxy-pyrimidin-5-yl)-6-methyl-5H-pyrrolo[3,2-d]pyrimidin-7-yl]-[4-[1-methyl-4-(trifluoromethyl)imidazol-2-yl]phenyl]methanol] | ≥ 10000 nM | 100 to 10000 nM | 250 to 10000 nM | 250 to 10000 nM |  |
| COc1ncnc(C2CC2)c1-c1ncc2[nH]cc(Cc3cc(F)c(-n4nc(C(F)(F)F)cc4C)c(F)c3)c2n1 [Compound 162, 2-(4-cyclopropyl-6-methoxy-pyrimidin-5-yl)-7-[[3,5-difluoro-4-[5-methyl-3-(trifluoromethyl)pyrazol-1-yl]phenyl]methyl]-5H-pyrrolo[3,2-d]pyrimidine] | ≥ 10000 nM | < 30 nM | < 100 nM | < 100 nM |  |
| Cn1cc(C(F)(F)F)nc1-c1ccc([C@@](C)(O)c2c[nH]c3cnc(-c4cccnc4OCC(F)(F)F)nc23)cc1 (single isomer, unassigned) [Compound 74] | 250 to 10000 nM | < 30 nM | 100 to 250 nM | 250 to 10000 nM |  |
| COc1ncnc(C2CC2)c1-c1cc2c(Oc3ccc(-c4nc(C(F)(F)F)cn4C)cc3)c[nH]c2cn1 [Compound 167, 5-(4-cyclopropyl-6-methoxy-pyrimidin-5-yl)-3-[4-[1-methyl-4-(trifluoromethyl)imidazol-2-yl]phenoxy]-1H-pyrrolo[2,3-c]pyridine] | ≥ 10000 nM | 30 to 100 nM | < 100 nM | < 100 nM |  |
| CC(C)Oc1ncnc(C2CC2)c1-c1ncc2[nH]nc(Cc3ccc(-c4nc(C(F)(F)F)cn4C)cc3)c2n1 [Compound 102] | ≥ 10000 nM | < 30 nM | 100 to 250 nM | 100 to 250 nM |  |
